Experimental findings from patent US20230331707A1, “PROGRAMMED CELL NECROSIS INHIBITOR, PREPARATION METHOD THEREFOR, AND USE THEREOF” (Shanghai Institute of Organic Chemistry, Chinese Academy of …, priority 2020, published 2023) are described below.

The test system of data set [1] is FADD−/− Jurkat cells. As to the kind of experiment: Inhibition of TNF-induced programmed necrosis of FADD deficient Jurkat cells (Cell Titer-Glo viability). The settings on record: at 1000-fold effective inhibitory concentration (1 μM); FADD-deficient Jurkat cells or L929 cells. In kind it is cell-based. On the technique in general: Cellular ATP, detected with luciferase, serves as a proxy for viable cell number.

For data set [2], the system named is TNFα-induced systemic inflammatory response syndrome. The experiment in a line: TNFα-induced systemic inflammatory response syndrome in mice. The settings on record: gavage 2 mg/kg, 20 min before TNFα tail vein injection. Format: in vivo. The protocol:
The adopted biological test scheme was: Tail vein injection of tumor necrosis factor TNFα would lead to the occurrence of systemic inflammatory response syndrome in mice, resulting in decreased body temperature and death. The effect of representative compound QY-10-40 on TNFα-induced systemic inflammatory response syndrome was tested, and the change in body temperature and death of mice were monitored.
Systemic inflammatory response syndrome, also known as inflammatory storm, refers to a systemic non-specific inflammatory response caused by infectious or non-infectious injuries such as severe infection, multiple trauma, burns, ischemia reperfusion, and acute pancreatitis. Under this condition, large amounts of inflammatory factors will release, in severe cases organism will loss the control of inflammatory response, resulting in multi-organ failure and even death.
Methods: The compounds to be tested were dissolved in 0.5% carboxymethyl cellulose according to the required concentration one day in advance, and sonicated overnight. Each mouse was gavaged with 200 μl. 20 min later, […] was injected through the tail vein. Body temperature changes of mice were monitored by infrared thermometer after injection. The effects of the compounds were calculated using Prism Graphpad statistical software.

The subject of data set [3] is MEFs cells expressing RIPK1 S161E mutant. The experiment in a line: TSZ-induced programmed necrosis in MEFs cells expressing RIPK1 S161E mutant. In kind it is cell-based, mouse. As to conditions: 600 nM. From the text: (§1) The adopted biological test protocol was: the effect of compounds on programmed necrosis in MEFs cells (mouse embryonic fibroblasts) with RIPK1 S161E mutation.
(§2) In order to verify the inhibitory effect of the compound of the present invention on the highly activated RIPK1 kinase at the cellular level, MEFs cells stably expressing RIPK1 S161E (simulating the activation state of RIPK1 after phosphorylation) were selected, TNFα-SM164-zVAD (Caspase inhibitor for inhibiting apoptosis) (TSZ) was used in combination to induce programmed cell necrosis, and cell viability was calculated by detecting chemiluminescence values, thereby obtaining the biological activity of the compound in inhibiting programmed necrosis.
(§3) Methods: MEFs cells replenished by RIPK1: WT-RIPK1, S161A-RIPK1 and S161E-RIPK1 were replenished in RIPK1 stable knockout cells respectively. After stable expression and being cultured to logarithmic growth phase, the cells were collected, and centrifuged at 1000 rpm for 5 min. The supernatant was discarded. Cell concentration was adjusted to 5×10^4/mL, and cells were inoculated into 384-well plates with 40 μL per well. Cell culture medium diluted SM164 (100 nM), zVAD (50 μM) and compound, each […], were added to the corresponding wells. After pretreatment at 37° C. for 1 h, 5 μL of cell culture medium diluted TNF (50 ng/mL) was added to each well in the stimulated group and 5 μL of culture medium was added to the control group. […] The unstimulated DMSO control wells (Ctrl) were taken as 100% cell viability. EC50 values of the compounds were calculated using Prism Graphpad statistical software.

Data set [4] in a line: Liver microsomal stability test, human. Format: in vitro ADME. From the text: The adopted biological test protocol was: testing the half-life of the compound in human- or mouse-derived liver microsomes.
Liver microsomes contain many enzymes involved in drug metabolism, especially cytochrome P-450, and therefore it is one of the major tissues involved in drug metabolism in living organisms. There are some correlations between the stability of the compound in liver microsomes and the pharmacogenetic stability thereof in vivo. Therefore, the relative stability of compounds in vivo can be roughly predicted by testing the half-life of different compounds in human- or mouse-derived liver microsomes. The specific methods were as follows:
Methods: 0.75 μL of 0.5 mM samples (compounds to be tested and control verapamil), 9.38 μL of 20 mg/mL liver microsomes (Human and Mouse) were taken and added to 239.88 μL PBS (on ice), and divided into 30 μL/tube samples respectively. The samples were incubated at 37° C. in a constant temperature water bath for 5 min, and then all samples were taken out. At zero-time, control group was added with 90 μL of ice acetonitrile first, and then added with 15 μL of 3 mM NADPH solution sequentially, and incubated at 37° C. in a constant temperature water bath. The corresponding samples were taken out after 5 min, 10 min, 20 min, 30 min and 60 min, respectively, and quenched by adding 90 μL of ice acetonitrile. All samples were centrifuged at 10000 rpm for 10 min, and the supernatants were taken and placed in a liquid phase vial waiting for LC-MS analysis.
(In general: Liver microsomes are a subcellular fraction often used to study metabolism.)

Data set [5] has as its system RIPK1^K612R/K612R mutant mice. The experiment in a line: Digestive system inflammation in RIPK1 K612R/K612R mutant mice. In kind it is in vivo. As to conditions: gavage 25 mg/kg, control Nec-1s 50 mg/kg. The source says:
The adopted biological test scheme was: RIPK1^K612R/K612R mutant mice were used as model mice to test the effect of representative compound QY-10-40 or QY-13-19 on spontaneous intestinal inflammation.
K612R mutation leads to decreased in intracellular RIPK1 level but abnormal activation, making it sensitive to programmed necrosis and caspase-1 activation, and responding to TLRs signaling. RIPK1^K612R/K612R mice will appear responses such as age-dependent reduced RIPK1 expression and abnormal activation, spontaneous intestinal inflammation and splenomegaly.
Methods: The compounds to be tested were dissolved in 0.5% carboxymethyl cellulose according to the required concentration one day in advance, and sonicated overnight. Mice were gavaged in a volume of 0.1 ml/10 g body weight. Body weight was measured three times a week, and samples were collected at the end of the experiment. The effect of the compounds was calculated using Prism Graphpad statistical software.

Data set [6] has as its system MEFs cells expressing RIPK1 WT. As to the kind of experiment: TSZ-induced programmed necrosis in MEFs cells expressing RIPK1 WT. Format: cell-based, mouse. The settings on record: 600 nM.
Text: as §1, §2, §3

A short description of data set [7]: Pharmacokinetic properties in mice. In kind it is in vivo. Here is the method:
The adopted biological test protocol was: drug metabolism test of the compound on the mouse in vivo.
In order to verify the […], a representative compound QY-10-40 was selected and the pharmacokinetic properties of the compound in mice (n=3) were tested using single administration by gavage (PO, 10 mg/kg) or intravenous injection (IV, 1 mg/kg).

Some results are limits rather than exact numbers.

On to `Cn1ncc(C(=O)NCc2ccc(-n3cnc4c(N)ncnc43)cc2)c1Cc1ccccc1` [QY-10-40], for which the cytotoxicity result in data set [1] is “does not exhibit any cytotoxicity”. Also, the “effect on TNFα-induced hypothermia, inflammation response and death” value in data set [2] was “effectively resists against TNFα-induced hypothermia, inflammation response and death”. The “inhibition of programmed necrosis” value in data set [3] is listed as “can significantly inhibit occurrence of programmed necrosis”; in data set [6], “can effectively inhibit the occurrence of programmed necrosis”. Further, the “stability in liver microsomes (in words)” value in data set [4] (human derived liver microsomes) was “good stability”. Moreover, the “T1/2 (min) Human” value in data set [4] (human liver microsomes, NADPH, 37° C.) is given as 40.8 min. The “effect on body weight and spleen coefficient” value in data set [5] was “can inhibit the effect of the digestive system inflammation”. For the same compound, in data set [7] (PO 10 mg/kg, IV 1 mg/kg), the “bioavailability (F) (in words)” value is “better bioavailability”. Also, the “half-life (T1/2) (in words)” value in data set [7] (PO 10 mg/kg, IV 1 mg/kg) is listed as “better”. Moreover, the “blood concentrations for most of the time within 24 h” value in data set [7] (gavage 10 mg/kg, single dose, 10 nM = effective inhibitory concentration) is > 10 nM. In data set [7] (single dose (PO 10 mg/kg or IV 1 mg/kg)), the “time to peak (in words)” value is given as “rapidly reach the peak”.
